Results published in patent US9072919B2, “Synergistic antioxidant cosmetic compositions containing at least one of baicalin and taxifolin, at least one of caffeine and nicotinamide, at least one of vitamin C and resveratrol and ferulic acid” (priority 2012, dated 2015).

How the values were obtained:
[1] = Oxygen radical absorbance capacity assay (ORAC); type: biochemical; conditions: tested both individually and in solution
Procedure: Azo-initiators are considered to produce the peroxyl radical by heating, which damages the fluorescent molecule, resulting in the loss of fluorescence. Antioxidants are considered to protect the fluorescent molecule from the oxidative degeneration. By quantifying the decay of fluorescence using a fluorometer, the degree of protection is determined comparing with a standard control antioxidant Trolox. […] Equipment that can automatically measure and calculate the capacity is commercially available, such as the VarioSkan flash microplate reader from Thermo Scientific. To test samples by using ORAC, compounds are dissolved into water-based NaH2PO4 buffer.

Solubility in water = type: physicochemical

NC(=O)c1cccnc1 [nicotinamide]
influence of hydrotrope on the capacity of antioxidant compounds [1]: no influence

O=C(O)[C@H]1O[C@@H](Oc2cc3oc(-c4ccccc4)cc(=O)c3c(O)c2O)[C@H](O)[C@@H](O)[C@@H]1O [baicalin]
solubility in water (Solubility in water): very low

Cn1c(=O)c2c(ncn2C)n(C)c1=O [caffeine]
influence of hydrotrope on the capacity of antioxidant compounds [1]: no influence
